According to patent publication US10633348B2, “Methods to treat lymphoplasmacytic lymphoma” (Dana-Farber Cancer Institute, Inc., priority 2013, dated 2020):

Experiments:
[1] = tested on: HCK; type: biochemical; details: read-out: HCK IC50 (nM) Inv
Excerpt: (§1) The in vitro activity of the compounds described herein in inhibiting TAK1, HCK and other kinases were obtained using an Invitrogen Select Screening assay as known in the art. The IC50 values determined from this assay are shown below.

[2] = tested on: TAK1; type: biochemical
[3] = tested on: BTK; type: biochemical
Excerpt: as §1

[4] = tested on: BCWM.1; test: CellTiter-Glo cell viability assay; type: cell-based
Protocol: (§2) CellTiter-Glo® Luminescent cell viability assay (Promega) was used to assess cell survival following treatment with the compounds described. Cells were seeded into 384 well plates with the EL406 Combination Washer Dispenser (BioTek Instruments, Inc.) and the compounds were injected into the cells culture media with the JANUS Automated Workstation (PerkinElmer Inc.). Cells were treated with a series diluted inhibitors (20˜0.04 μM) for 72 hours at 37° C. Luminescent measurement is performed using the 2104 Envision® Multilabel Reader (PerkinElmer Inc.).

[5] = tested on: MWCL-1; test: CellTiter-Glo cell viability assay; type: cell-based; details: 72 h
Protocol: as §2

[6] = tested on: OCI-Ly19; test: CellTiter-Glo cell viability assay; type: cell-based; details: Homo sapiens, OCI-LY19, 72 h
Protocol: as §2

[7] = tested on: OCI-Ly3; test: CellTiter-Glo cell viability assay; type: cell-based; details: Homo sapiens, OCI-Ly3, 72 h
Protocol: as §2

[8] = tested on: Ramos; test: CellTiter-Glo cell viability assay; type: cell-based; details: Homo sapiens, 72 h
Protocol: as §2

[9] = Isobolograms, synergy with a BTK inhibitor; details: FIG. 1
Excerpt: Points below the 1 to 1 line connecting the X and Y axes are ‘synergistic’, points near the line are ‘additive’, and points above it are antagonistic.

[10] = tested on: OCI-Ly7; test: CellTiter-Glo cell viability assay; type: cell-based; details: Homo sapiens, 72 hours
Protocol: as §2

[11] = tested on: TMD8; test: CellTiter-Glo cell viability assay; type: cell-based; details: Homo sapiens, 72 hours
Protocol: as §2

[12] = tested on: Abl; test: KiNativ kinase profiling in A375 cells; type: cell-based; details: 1 μM; A375 cells
[13] = tested on: FYN; test: KiNativ kinase profiling in A375 cells; type: cell-based; details: 1 μM; A375 cells
[14] = tested on: LYN; type: cell-based
[15] = tested on: ZAK; type: cell-based
[16] = tested on: BTK-pY223; test: PhosFlow; type: cell-based; details: BCWM.1, Hck-wt and Hck-mu BCWM.1 cells; 0.5 μM and 0.1 μM
Protocol: PhosFlow was performed to detect levels of phosphorylation for BTK-pY223 (BD Biosciences) and Hck-pY410 (Abcam) in BCWM.1 cells, in BCWM cells that stably overexpress HCK (BCWM.1_HCK-wt) and in BCWM.1 cells that stably overexpress the T338M mutant of HCK (BCWM.1_HCK-mu). Cells were fixed with BD Phosflow Fix Buffer I (BD Biosciences) at 37° C. for 10 min, then washed twice with BD Phosflow Perm/Wash Buffer I (BD Biosciences). Cells were suspended in BD Phosflow Perm/Wash Buffer I at 10 million/ml and antibodies aliquoted to flow tubes with 100 μl cells. Cells were incubated at room temperature for 30 min in the dark. Cells were washed twice with BD Phosflow Perm/Wash Buffer I before performing flow analysis using a BD™ FACSCanto II flow cytometer.

[17] = tested on: Hck-pY410; test: PhosFlow; type: cell-based; details: BCWM.1, Hck-wt and Hck-mu BCWM.1 cells; 0.5 μM and 0.1 μM
[18] = tested on: WM patient primary lymphoplasmacytic cells (LPCs); test: Apoptosis analysis (Annexin V/Propidium iodide); type: cell-based; details: for Apoptosis (%): 24 hours
Protocol: WM cells were treated with and without the compounds described herein. Cells were incubated at 37° C. with 0.01˜4 uM of the compounds described herein. Apoptosis analysis was performed using Annexin V/Propidium iodide staining with the Apoptosis Detection Kit I (BD Pharmingen). 1×10^6/well cells were treated in 24 well plates for ˜24 hours with inhibitors or corresponding controls. A minimum of 10,000 events were acquired using a BD™ FACSCanto II flow cytometer and analyzed with BD FACS DIVA Software.
Apoptosis analysis of WM patient primary lymphoplasmacytic cells (LPCs) was preformed following A-5 and A-14 treatment of Bone marrow mononuclear cells (BMMC) from WM patients for 24 hours. Apoptosis analysis was performed using Annexin V/Propidium iodide staining with the Apoptosis Detection Kit I (BD Pharmingen) in CD19-APC-cy7 antibody (BD Pharmingen) gated LPCs population.

In the case of `CCN1CCN(Cc2ccc(NC(=O)c3ccc(C)c(Oc4cc(Nc5cncnc5)ncn4)c3)cc2C(F)(F)F)CC1` [(A-8), N-(4-((4-ethylpiperazin-1-yl)methyl)-3-(trifluoromethyl)phenyl)-4-methyl-3-((6-(pyrimidin-5-ylamino)pyrimidin-4-yl)oxy)benzamide], the IC50 [1] is reported as 889 nM and the IC50 [2] is reported as 487 nM.
`C=CC(=O)Nc1cc(Oc2cc(C(=O)Nc3ccc(CN4CCN(CC)CC4)c(C(F)(F)F)c3)ccc2C)ncn1` [(A-17), 3-((6-acrylamidopyrimidin-4-yl)oxy)-N-(4-((4-ethylpiperazin-1-yl)methyl)-3-(trifluoromethyl)phenyl)-4-methylbenzamide] gave an IC50 [3] of 3380 nM, an EC50 ([4]; BCWM1, 72 h) of 8 nM and an EC50 [5] of 202 nM. It also gave an EC50 [6] of 188 nM, an EC50 [7] of 247 nM and an EC50 [8] of 389 nM. The “synergy between compound and a BTK inhibitor (isobolograms)” value [9] was “synergy”.
With `CCN1CCN(Cc2ccc(NC(=O)c3ccc(C)c(Oc4cc(Nc5cnn(C)c5)ncn4)c3)cc2C(F)(F)F)CC1` [(A-5), N-(4-((4-ethylpiperazin-1-yl)methyl)-3-(trifluoromethyl)phenyl)-4-methyl-3-((6-((1-methyl-1H-pyrazol-4-yl)amino)pyrimidin-4-yl)oxy)benzamide] the IC50 [3] was greater than 10000 nM, the EC50 ([4]; 72 hours) was 72 nM and the EC50 ([4]; BCWM1, 72 h) was 51 nM. For the same molecule, the EC50 [7] was 4710 nM, the EC50 [10] was 655 nM and the EC50 [11] was 132 nM. The Abl inhibition [12] was greater than 90%, the FYN inhibition [13] was 71.2% and the LYN inhibition [14] was 87.8%. For the same molecule, the ZAK inhibition [15] was 75.7%, the “BTK phosphorylation” value [16] was “inhibit” and the “Hck phosphorylation” value [17] was “inhibit”. The “Apoptosis (%)” value ([18]; Patient 1, 1.0 μM) was 57.7%, the “Apoptosis (%)” value ([18]; Patient 2, 1.0 μM) was 28.9% and the “Apoptosis (%)” value ([18]; Patient 3, 1.0 μM) was 29.48%. For the same molecule, the “Apoptosis (%)” value ([18]; Patient 4, 1.0 μM) was 48.56%, the “Apoptosis (%)” value ([18]; Patient 5, 0.5 μM) was 23.25% and the “Apoptosis (%)” value ([18]; Patient 5, 1.0 μM) was 30.5%. For the same molecule, the “Apoptosis (%)” value ([18]; Patient 6, 1.0 μM) was 17.82%, the “Apoptosis (%)” value ([18]; Patient 7, 0.5 μM) was 17.23% and the “Apoptosis (%)” value ([18]; Patient 7, 1.0 μM) was 18.2%. For the same molecule, the “Apoptosis (%)” value ([18]; Patient 8, 0.5 μM) was 11.04%, the “Apoptosis (%)” value ([18]; Patient 8, 1.0 μM) was 17.31% and the “Apoptosis (%)” value ([18]; Patient 10, 0.2 μM) was 21.5%. For the same molecule, the “Apoptosis (%)” value ([18]; Patient 10, 1.0 μM) was 28.7%, the “Apoptosis (%)” value ([18]; Patient 11, 0.2 μM) was 30.2% and the “Apoptosis (%)” value ([18]; Patient 11, 1.0 μM) was 47%. The “apoptosis compared with DMSO control” value ([18]; WM patient primary LPCs) was “induced significant apoptosis”.
